Results published in patent US20080241101A1, “Skin vitalizing composition for external use anti-aging preparation” (Shiseido Company, Ltd., priority 2002, published 2008).

Assays:
[1] = system: artificial skin (human dermal fibroblast collagen gel with human foreskin-derived epidermal keratinocytes); test: Artificial skin culture with additives in the medium, H&E and type IV / type VII collagen immunostaining (Example 1); format: cell-based; conditions: for staining of type IV and type VII collagen: cytokine (1 ng/ml interleukin-1β, 1 ng/ml TGF-α or 100 ng/ml PDGF) combined with 10 μg/ml aprotinin and 10 μM compound A
Experimental: (§1) Collagen gel was obtained by preparing 10 ml of a human dermal fibroblasts (0.3-1×10^5 cell/ml)-suspended collagen solution (using I-AC collagen manufactured by Koken Co., Ltd.) on ice, followed by gelling the collagen in a 60 mm Petri dish at 37° C. The gel was then peeled from the bottom of the dish, the collagen gel was placed on metal, and a glass ring (12 mm inner diameter) was placed over the gel. A 0.4 ml portion of a human foreskin-derived epidermal keratinocyte (1×10^6/ml) suspension (KGM-DMEM (1:1) mixed medium containing 5% fetal bovine serum) was poured into the glass ring while avoiding leakage. The keratinocytes were allowed to adhere in a CO2 incubator overnight, and the ring was removed on the following day. The medium was filled in up to the border of the epidermal layer, and culturing was continued while exposing the epidermal layer to the air, to prepare a multilayered skin model with epidermis having a horny layer.
From the 4th day after seeding the epidermal cells, the medium was replaced with medium containing (1) no compound (−compound A), (2) 10 uM of compound A (+compound A), (3) 10 μM of compound A and 10 μg/ml of aprotinin (+compound A+aprotinin), (4) 10 μM of compound A and 1 ng/ml of interleukin-1β (+compound A+IL-1), (5) 10 μM of compound A, 1 ng/ml of interleukin-1β and 10 μg/ml of aprotinin (+compound A+IL-1+aprotinin), (6) 10 μM of compound A and 1 ng/ml of TFG-α (+compound A+TGFα), (7) 10 μM of compound A, 1 ng/ml of TGF-α and 10 μg/ml aprotinin (+compound A, +TGFα+aprotinin), (8) 10 μM of compound A and 100 ng/ml PDGF (+compound A+PDGF) and (9) 10 μm of compound A, 100 ng/ml PDGF and 10 μg/ml of aprotinin (+compound A+PDGF +aprotinin), and every 2-3 days thereafter, the medium was exchanged with a medium containing the same types and same concentrations of […], extracellular matrix production accelerator (cytokines) and serine protease inhibitor, after which culturing was performed for 2 weeks.
The formed artificial skin was stained with hematoxylin and eosin (H&E) and immunostaining (using anti-type IV collagen antibody and anti-type VII collagen antibody).

[2] = system: artificial skin basement membrane; test: Transmission electron microscopy of basement membrane structure directly under the epidermis of artificial skin (Example 1); format: cell-based, human
Experimental: as §1, with “layer. […]” for “layer.”

[3] = cytokine (1 ng/ml interleukin-1β, 1 ng/ml TGF-α or 100 ng/ml PDGF) together with 10 μM compound A

Row | Compound | staining of type IV and type VII collagen [1] | staining of type VII collagen [1, 3] | other results
1 | COc1ccc(S(=O)(=O)N(Cc2cccnc2)C(C(=O)NO)C(C)C)cc1.Cl (centres unmarked) [compound A, reference compound] | – | – | staining of type VII collagen directly under the basal keratinocytes ([1]; 10 μM compound A alone in medium, 2 weeks culture, versus no-addition control): weak but definite staining of type VII collagen; basement membrane structure directly under the epidermis (transmission electron microscope) ([2]; 10 μM compound A alone): induced formation of the basement membrane
2 | aprotinin | – | – | staining of type VII collagen ([1]; 10 μg/ml aprotinin added in addition to 10 μM compound A, 2 weeks culture): further increased; basement membrane structure directly under the epidermis (transmission electron microscope) ([2]; 10 μg/ml aprotinin added with 10 μM compound A): increased the electron density and accentuated the continuity of the basement membrane
3 | interleukin 1 (IL-1): matrix protein production-increasing cytokine, interleukin-1β | clearly concentrated directly under the basal keratinocytes, giving a sharp stained image | particularly accentuated | –
4 | transforming growth factor-α (TGF-α): matrix protein production-increasing cytokine | clearly concentrated directly under the basal keratinocytes, giving a sharp stained image | particularly accentuated | –
